# Results as given in the supplement of paper PMC5579334.
# Experiments:
# ST8814 [1] = assay: relative IC50 (inflection point of fitted dose-response curve, CellTiter-Glo viability, 72 h; top asymptote may be below 50% inhibition); higher = less potent
# Procedure, shortened: (§1)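 MPNST cell lines and primary human Schwann cells were seeded at 750–1000 cells per well into 384-well plates preprinted with each compound at five concentrations in 10-fold steps, then incubated 72 h at 37 °C, 5% CO2. CellTiter-Glo ATP luminescence gave viability, scaled between vehicle and positive-control wells, with duplicates averaged where present. Curves were fitted with a four-parameter logistic model. Percent inhibition refers to the top concentration, while drug sensitivity score and relative IC50, censored at the top concentration, come from these fits.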
# HS-PSS [2] = assay: as above
# Procedure, shortened: as §1
# ST8814 [3] = assay: relative IC50 (inflection point of fitted dose-response curve, CellTox-Green cytotoxicity, 72 h; top asymptote may be below 50%); higher = less potent
# Procedure, shortened: (§2)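 For 72 h at 37 °C, MPNST cell lines and primary human Schwann cells were exposed in 384-well plates to five 10-fold compound dilutions. CellTox-Green, added before seeding at a final 1:1000 dilution, gave fluorescence from DNA released by disrupted cells. Signals were scaled to vehicle and positive-control wells, cultures failing plate quality control were left out, and four-parameter logistic fits were applied. Relative IC50 and drug sensitivity score were derived from the fits, with IC50 censored at the top concentration.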
# HS-PSS [4] = assay: as above
# Procedure, shortened: as §2
# S1507-2 [5] = assay: as above
# Procedure, shortened: as §2
# HSC2 [6] = assay: as above
# Procedure, shortened: as §2
# STS26T [7] = assay: as above
# Procedure, shortened: as §2
# HSC1 [8] = assay: as above
# Procedure, shortened: as §2
# YST-1 = assay: relative IC50 (inflection point of fitted dose-response curve, CellTiter-Glo viability, 72 h; top asymptote may be below 50% inhibition); higher = less potent
# Procedure, shortened: as §1
# HS-Sch-2 = assay: as above
# Procedure, shortened: as §1
# S462 = assay: as above
# Procedure, shortened: as §1
# S1507-2 [9] = assay: as above
# Procedure, shortened: as §1
# HSC2 [10] = assay: as above
# Procedure, shortened: as §1
# STS26T [11] = assay: as above
# Procedure, shortened: as §1
# HSC1 [12] = assay: as above
# Procedure, shortened: as §1
Structure (SMILES),relative IC50 (ST8814 [1]),relative IC50 (HS-PSS [2]),relative IC50 (ST8814 [3]),relative IC50 (HS-PSS [4]),relative IC50 (S1507-2 [5]),relative IC50 (HSC2 [6]),relative IC50 (STS26T [7]),relative IC50 (HSC1 [8]),relative IC50 (YST-1),relative IC50 (HS-Sch-2),relative IC50 (S462),relative IC50 (S1507-2 [9]),relative IC50 (HSC2 [10]),relative IC50 (STS26T [11]),relative IC50 (HSC1 [12])
CN1CCN(c2ccc3nc(-c4c(N)c5c(F)cccc5[nH]c4=O)[nH]c3c2)CC1 [Dovitinib],> 10 µM,> 10 µM,> 10 µM,> 10 µM,> 10 µM,> 10 µM,> 10 µM,> 10 µM,,,,,,,
C/C(=C\c1csc(C)n1)[C@@H]1C[C@@H]2O[C@]2(C)CCC[C@H](C)[C@H](O)[C@@H](C)C(=O)C(C)(C)[C@@H](O)CC(=O)O1 [Patupilone],0.00225 µM,0.00089 µM,0.00433 µM,> 1 µM,,0.00917 µM,0.00103 µM,0.0121 µM,0.00072 µM,0.00137 µM,0.000718 µM,0.00352 µM,0.00245 µM,0.00103 µM,0.000929 µM
NC1(c2ccc(-c3nc4ccn5c(=O)[nH]nc5c4cc3-c3ccccc3)cc2)CCC1 [MK-2206],> 1 µM,,> 1 µM,> 1 µM,> 1 µM,> 1 µM,> 1 µM,> 1 µM,0.128 µM,,,,> 1 µM,0.118 µM,
COc1cc2nccc(Oc3ccc(NC(=O)C4(C(=O)Nc5ccc(F)cc5)CC4)cc3)c2cc1OC [Cabozantinib],,,> 1 µM,> 1 µM,> 1 µM,> 1 µM,> 1 µM,> 1 µM,> 1 µM,,,,> 1 µM,,
C[C@]1(c2nc3c(C(N)=O)cccc3[nH]2)CCCN1 [Veliparib],> 10 µM,,> 10 µM,> 10 µM,> 10 µM,> 10 µM,> 10 µM,> 10 µM,1.16 µM,> 10 µM,,,,> 10 µM,
CS(=O)(=O)N1CCN(Cc2cc3nc(-c4cccc5[nH]ncc45)nc(N4CCOCC4)c3s2)CC1 [Pictilisib],0.789 µM,1.11 µM,2.28 µM,> 10 µM,,> 10 µM,> 10 µM,> 10 µM,0.445 µM,1.75 µM,1.15 µM,0.128 µM,1.55 µM,0.31 µM,1.21 µM
CN(C)c1nc(N(C)C)nc(N(C)C)n1 [Altretamine],> 10 µM,> 10 µM,> 10 µM,> 10 µM,,> 10 µM,> 10 µM,> 10 µM,> 10 µM,> 10 µM,> 10 µM,> 10 µM,> 10 µM,> 10 µM,> 10 µM
O=C1c2c(O)ccc(O)c2C(=O)c2c(NCCNCCO)ccc(NCCNCCO)c21 [Mitoxantrone],0.291 µM,0.194 µM,0.384 µM,> 1 µM,,> 1 µM,0.38 µM,> 1 µM,0.0566 µM,0.0874 µM,0.213 µM,0.244 µM,0.0891 µM,0.366 µM,0.164 µM
Cn1cc(C2=C(c3cn(C4CCN(Cc5ccccn5)CC4)c4ccccc34)C(=O)NC2=O)c2ccccc21 [Enzastaurin],,,> 10 µM,> 10 µM,> 10 µM,> 10 µM,,> 10 µM,> 10 µM,,,,2.91 µM,,
CNNCc1ccc(C(=O)NC(C)C)cc1 [Procarbazine],> 10 µM,> 10 µM,> 10 µM,> 10 µM,,> 10 µM,> 10 µM,> 10 µM,> 10 µM,> 10 µM,> 10 µM,> 10 µM,> 10 µM,> 10 µM,> 10 µM
C=CCN(/C=C1/C(=O)O[C@H](COC)[C@@]2(C)C1=C(O)C(=O)C1=C2[C@H](OC(C)=O)C[C@]2(C)C(=O)CC[C@@H]12)CC=C [Sonolisib],,> 10 µM,> 10 µM,> 10 µM,> 10 µM,> 10 µM,> 10 µM,> 10 µM,> 10 µM,> 10 µM,,,,,
CN1CC[C@H](c2c(O)cc(O)c3c(=O)cc(-c4ccccc4Cl)oc23)[C@H](O)C1 [Alvocidib],0.173 µM,0.12 µM,0.931 µM,0.194 µM,,0.304 µM,0.614 µM,0.484 µM,0.185 µM,0.195 µM,0.17 µM,0.299 µM,0.243 µM,0.185 µM,0.219 µM
CCc1cnn2c(NCc3ccc[n+]([O-])c3)cc(N3CCCC[C@H]3CCO)nc12 [Dinaciclib],0.0295 µM,0.0101 µM,0.0364 µM,0.00772 µM,,0.0439 µM,0.00871 µM,0.0842 µM,0.00748 µM,0.00855 µM,0.0065 µM,0.0259 µM,0.0136 µM,0.0127 µM,0.0216 µM
O=P1(N(CCCl)CCCl)NCCCO1 (stereo unspecified) [Cyclophosphamide],> 40 µM,> 40 µM,> 40 µM,> 40 µM,,> 40 µM,> 40 µM,> 40 µM,> 40 µM,> 40 µM,> 40 µM,> 40 µM,> 40 µM,> 40 µM,> 40 µM
CC/C(=C(\c1ccc(O)cc1)c1ccc(OCCN(C)C)cc1)c1ccccc1 [4-hydroxytamoxifen],2.39 µM,2.32 µM,3.31 µM,3.41 µM,,2.18 µM,3.56 µM,3 µM,1.39 µM,2.06 µM,1.81 µM,1.47 µM,2.49 µM,2.54 µM,2.01 µM
Cc1sc2c(c1C)C(c1ccc(Cl)cc1)=N[C@H](CC(=O)OC(C)(C)C)c1nnc(C)n1-2 [(-)JQ1],,,> 10 µM,,> 10 µM,> 10 µM,> 10 µM,> 10 µM,,,,,,,
CO[C@H](C(=O)[C@@H](O)[C@@H](C)O)[C@@H]1Cc2cc3cc(O[C@H]4C[C@@H](O[C@H]5C[C@@H](O)[C@H](O)[C@@H](C)O5)[C@@H](O)[C@@H](C)O4)c(C)c(O)c3c(O)c2C(=O)[C@H]1O[C@H]1C[C@@H](O[C@H]2C[C@@H](O[C@H]3C[C@](C)(O)[C@H](O)[C@@H](C)O3)[C@H](O)[C@@H](C)O2)[C@H](O)[C@@H](C)O1 [Plicamycin],0.0514 µM,1.38 µM,> 10 µM,2.41 µM,,0.247 µM,0.0333 µM,0.255 µM,0.564 µM,0.865 µM,0.0852 µM,0.102 µM,0.052 µM,0.0475 µM,0.0456 µM
COC1=CC(c2cc3ccccc3[nH]2)=N/C1=C\c1[nH]c(C)cc1C [Obatoclax],2.88 µM,1.99 µM,2.87 µM,> 10 µM,,2.1 µM,2.96 µM,2.22 µM,1.23 µM,1.59 µM,1.96 µM,1.9 µM,1.36 µM,2.33 µM,1.37 µM
CO[C@@H](C(=O)N1Cc2[nH]nc(NC(=O)c3ccc(N4CCN(C)CC4)cc3)c2C1)c1ccccc1 [Danusertib],1.2 µM,1.27 µM,1.17 µM,2.63 µM,,2.39 µM,0.744 µM,2.69 µM,0.0578 µM,0.529 µM,0.389 µM,0.641 µM,0.968 µM,1.23 µM,0.759 µM
CCc1cncnc1N1CCN(Cc2nc3ccc(C(F)(F)F)cc3[nH]2)CC1,,2.57 µM,> 10 µM,> 10 µM,> 10 µM,> 10 µM,> 10 µM,> 10 µM,,3.73 µM,,,,,
CC(=O)c1c(C)c2cnc(Nc3ccc(N4CCNCC4)cn3)nc2n(C2CCCC2)c1=O [Palbociclib],1.74 µM,1.7 µM,> 10 µM,> 10 µM,,> 10 µM,> 10 µM,> 10 µM,1.35 µM,1.94 µM,0.855 µM,0.987 µM,0.286 µM,1.34 µM,0.268 µM
CC(C)c1c(C(=O)Nc2ccccc2)c(-c2ccccc2)c(-c2ccc(F)cc2)n1CC[C@@H](O)C[C@@H](O)CC(=O)O [Atorvastatin],2.45 µM,1.68 µM,3.27 µM,> 10 µM,,0.234 µM,3.51 µM,0.368 µM,2.31 µM,2.21 µM,1.28 µM,2.5 µM,0.197 µM,2.09 µM,0.319 µM
COc1cccc2cc(-c3nc([C@H]4CC[C@H](C(=O)O)CC4)n4ncnc(N)c34)[nH]c12 [OSI-027],0.883 µM,3.8 µM,> 10 µM,> 10 µM,,> 10 µM,> 10 µM,> 10 µM,0.788 µM,3.47 µM,0.608 µM,0.631 µM,1.15 µM,1.81 µM,0.712 µM
C[C@@H]1CCN(C(=O)CC#N)C[C@@H]1N(C)c1ncnc2[nH]ccc12 [Tofacitinib],> 5 µM,> 5 µM,> 5 µM,> 5 µM,> 5 µM,> 5 µM,> 5 µM,> 5 µM,> 5 µM,> 5 µM,,,0.742 µM,,
CN(C)CCOc1ccc(/C(=C(/CCCl)c2ccccc2)c2ccccc2)cc1 [Toremifene],4.06 µM,3.43 µM,2.82 µM,> 10 µM,3.22 µM,> 10 µM,,> 10 µM,3.74 µM,3.46 µM,,,2.87 µM,3.44 µM,
C[C@@H](C(=O)O)c1ccc(-c2ccccc2)c(F)c1 [Tarenflurbil],> 10 µM,> 10 µM,> 10 µM,> 10 µM,,> 10 µM,> 10 µM,> 10 µM,> 10 µM,> 10 µM,> 10 µM,> 10 µM,> 10 µM,> 10 µM,> 10 µM
CCOC(=O)CCNc1cc(N2CCc3ccccc3CC2)nc(-c2ccccn2)n1 [GSK-J4],5.9 µM,6.01 µM,15.5 µM,27.2 µM,,23.7 µM,14.8 µM,23.7 µM,4.29 µM,4.52 µM,3.74 µM,6.51 µM,4.57 µM,5.27 µM,4.68 µM
Cc1cc(C(C)Nc2ccccc2)c2nc(N3CCOCC3)cc(=O)n2c1 (stereo unspecified) [TGX-221],,> 10 µM,> 10 µM,> 10 µM,> 10 µM,> 10 µM,,> 10 µM,3.37 µM,,,,> 10 µM,0.875 µM,
CCCC(CCC)C(=O)O [Valproic acid aq],168 µM,,,,> 1000 µM,> 1000 µM,,> 1000 µM,,,,,217 µM,254 µM,269 µM
